In patent US8592603B2, “Synthesis of 2-(4-aminophenyl) benzothiazole derivatives and use thereof” (Kaohsiung Medical University, priority 2011, dated 2013):

Columns and labels:
[1] = tested on: caspase-3; assay: Caspase-3 colorimetric assay; format: cell-based, human; settings: BCC cells, 6f-UVA treatment, compared with untreated control, p<0.01 (FIG. 4A)
Experimental: (§1) (A) The increased enzymatic activities of the caspase-3 in apoptotic were determined by colorimetric reaction. The cleavage of peptide by the caspase releases the chromophore pNA (p-nitroaniline), which can be quantified spectrophotometrically at a wavelength of 405 nm. (B) Dot plots for BCC cells treated with various concentrations of 6f-UVA and then stained with PI and an annexin V-FITC conjugate specifically detecting the exposure of PS residues at the cell surface. (C) Morphological observation and annexin V/PI double stain were used for the detection of fibroblasts apoptosis. Approximately 10000 cells from each group were analyzed by flow cytometry. Data shown are of a representative experiment repeated three times with similar results. ** p<0.01 as compared with the control.
Twenty-four hours after irradiation, cells were collected by centrifugation, washed once with PBS, and cell pellets were counted and resuspended in 25 μL/1×10^6 cells of cold lysis buffer and homogenized. Homogenates were centrifuged at 12,000 rpm for 10 min at 4° C., supernatants were used for measuring caspase-3 activity using an ELISA-based assay, according to the manufacturer's instructions. (R&D Systems, Minneapolis, Minn.). The results were presented as mean±SD.

[2] = tested on: BCC cells; assay: Annexin V and PI binding assay; format: cell-based, human; settings: for apoptotic cells (annexin V+/PI−): BCC cells, 1 J/cm^2 UVA
Experimental: as §1
(§2) To assess the simultaneous observation of early phase of apoptotic and necrotic features, BCC cells were treated with various concentrations (0-4 μM) of Formula 6f for 4 h before irradiation. Twenty-four hours after irradiation, cells were harvested by trypsinization and centrifugation and measured by cytometry by adding annexin V-FITC to […] per sample according to the manufacturer's specifications (Bender MedSystems, Vienna, Austria). Simultaneously, the cells were stained with PI. Flow cytometry data were analyzed by the WinMDI software.

[3] = tested on: human dermal fibroblast cells; assay: Morphology observation and annexin V/PI binding assay on normal cells; format: cell-based; settings: 4 μM for 4 h, 1 J/cm2 UVA (FIG. 4C)
Experimental: as §1, §2
BCC or fibroblasts (5×10^5 cells/well) seeded on 6 well plate. […]

[4] = tested on: BCC cells; assay: Assessment of mitochondrial membrane potential (DiOC6); format: cell-based, human; settings: dosages equal to or greater than 2 μM, 1 J/cm^2 UVA (FIG. 5B)
Experimental: (§3) (A) 6f-UVA induced ROS generation in BCC cells. Histogram of fluorescence vs cell count in BCC cells with various concentrations of 6f-UVA and stained with DCFH-DA. As a control, ROS was measured in the presence of catalase, a H2O2 scavenger. (B) The ΔΨmt of BCC cells after exposure to 6f-UVA. Cells were treated with 0, 2, and 4 μM Formula 6f for 4 h followed by 1 J/cm2 UVA irradiation, then stained with DiOC6 and analyzed immediately by flow cytometry as described under Materials and Methods. The number in M1 indicates the percentage of cells with reduced ΔΨmt. Approximately 10000 cells from each group were analyzed by flow cytometry. (C) Relative ATP levels were calculated as the percentage of the 0 μM level. Similar results were obtained in three independent experiments. *p<0.05, ** p<0.01 as compared with the control.
BCC cells were cultured in 35-mm dishes and allowed to reach exponential growth for 24 h before treatment. Cells were pretreated with […] Formula 6f for 4 h before 1 J/cm^2 UVA irradiation. The medium was removed and the adherent cells trypsinized. […] The samples were analyzed immediately for fluorescence (FL-1 detector, filter 530/30 nm band pass) on a FACScan flow cytometer (Elite ESP, Beckman Coulter, Brea, Calif.). Histograms were analyzed using Windows Multiple Document interface software (WinMDI).

[5] = tested on: BCC cells; assay: ATP content bioluminescence assay; format: cell-based, human
Experimental: as §3
The amount of intracellular ATP was determined by bioluminescent assay based on the measurement of the light output of the luciferin-luciferase reaction. After treatment with various concentrations of 6f-UVA, total cell extracts from cultured BCC cells were obtained immediately by lysing solution. After centrifugation to remove cell debris, the supernatants were collected for ATP measurement. The total amount of intracellular ATP was determined according to the protocol provided with the ATPLite assay kit (Perkin Elmer, Boston, Mass.).

[6] = tested on: JNK MAPK; assay: Western blot analysis of MAPK phosphorylation: JNK; format: cell-based, human; settings: BCC cells, 6f-UVA (FIG. 6A)
Experimental: (A) After exposure to different concentration of 6f-UVA, cell lysates were collected and immunoblotted with specific antibodies as indicated. For the internal control, the same amounts of protein extract were also probed with antibody against actin. (B) As a control, the expression level of p-ERK was determined in the presence of oligomycin (25 μM) and ATP (1×10^−4M)
Total cell extracts from cultured BCC cells were obtained by lysing the cells in ice-cold RIPA buffer (1×PBS, 1% NP-40, 0.5% sodium deoxycholate, 0.1% SDS) containing 100 μg/mL PMSF, 2 μg/mL aprotinin, 2 μg/mL leupeptin and 100 μg/mL NaF. After centrifugation at 14,000 g for 30 min, protein in the supernatants was quantified by Bradford method (Bio-Rad). Forty micrograms of protein per lane was applied in 10% SDS-poly-acrylamide gel. After electrophoresis, protein was transferred from the gel to polyvinylidene difluoride (PVDF) membrane (Millipore, Bedford, Mass.). The membranes were blocked at room temperature for 1 h in PBS+0.1% Tween 20 (PBS-T) containing 5% skim milk. After being briefly rinsed with PBS-T, the blots were probed with respective primary antibodies at room temperature for 2 h or at 4° C. overnight. […] The relative amounts of specific proteins were quantified by densitometry scanning of X-ray films and analyzed by Eagle Eye Image System (Stratagene, La Jolla, Calif.)

caspase-3 activity [1]: increased | melting point: 181 to 183 °C
Structure (SMILES): Nc1ccc(-c2nc3ccc(C(F)(F)F)cc3s2)cc1 [Formula 6f, 2-(4-Aminophenyl)-6-trifluoromethylbenzothiazole]
necrotic cells (annexin V+/PI+) ([2]; BCC cells, 0, 2, and 4 μM, 1 J/cm^2 UVA (FIG. 4B)): no obvious change | apoptotic cells (annexin V+/PI−) ([2]; 2 μM): 19.5% | apoptotic cells (annexin V+/PI−) ([2]; 4 μM): 27.5% | apoptotic activity on normal cells [3]: no significant apoptotic effect | mitochondrial membrane potential (ΔΨmt) [4]: significant decline | decrease of intracellular ATP content compared with untreated control ([5]; 2 μM 6f-UVA): about 30% | decrease of intracellular ATP content compared with untreated control ([5]; 4 μM 6f-UVA): ~45% | phosphorylation of JNK MAPK [6]: did not stimulate the phosphorylation
